Measured values from patent US20100203110A1, “Therapeutics for Cancer Using 3-Bromopyruvate and Other Selective Inhibitors of ATP Production” (The Johns Hopkins University, priority 2006, published 2010).

What was measured:
VX2 [1] = assay: Caspase-3 activity, VX2; assay type: cell-based, rabbit; conditions: 1 mM for 3 hour
Procedure: (§1) Caspase-3 activity and reduced cell viability was also measured in cell lines (HepG2, THLE-2, and VX2 cell lines) following 3-bromopyruvate treatment (1 mM for 3 hour) (FIG. 6A). Caspase-3 activity increased in each cell line following treatment and cell viability decreased following treatment. An increase in caspase-3 activity indicated the mechanism of cell death is apoptotic. FIGS. 6 B and C show cell viability is reduced in each cell line with increasing 3-bromopyruvate concentration after 1 and 3 hours of treatment.

VX2 [2] = assay: Cell viability, VX2; assay type: cell-based, rabbit; conditions: 1 mM for 3 hour
Procedure: as §1

[3] = Intravenous dose-escalation study in normal Lewis rats; assay type: in vivo, rat; conditions: for therapeutic dose, intravenous: Lewis rats
Procedure: In order to determine the therapeutic dose of 3-bromopyruvate for intravenous (N) administration, a dose-escalation study was conducted in normal Lewis rats (non-tumor bearing). Each group of animals (6 rats per group) received incremental doses of 3-bromopyruvate intravenously (2.5 mL of 5, 10, 15, 20, 25 and 50 mM 3-bromopyruvate).

[4] = Acute toxicity study, single IV dose in rabbits; assay type: in vivo, rabbit
Procedure: In addition, an acute toxicity study was performed to determine the effects of 3-bromopyruvate administered IV. Based on the data acquired in rats, rabbits (2 animals per group followed for 1 week) were given 25 ml of 15, 20, and 25 mM 3-bromopyruvate as a single IV dose (i.e., using dose identified for rats).

[5] = test system: back adipose tissue (BAT); assay: FDG uptake after IP injection in non-tumor bearing rats; assay type: in vivo, rat
Excerpt: After having established the anti-glycolytic effect of 3-bromopyruvate in vitro, we designed a series of experiments to confirm this property in vivo. For this purpose, two different animal models, the Lewis rat mammary tumor model and the orthotopic VX2 rabbit liver cancer model were used. Since glucose uptake can be monitored using fluorine-labeled deoxyglucose (FDG), potential sites of decreased FDG uptake as a result of 3-bromopyruvate activity could be identified. The effects of intraperitonealy (IP) injected 3-bromopyruvate in non-tumor bearing rats were compared to those in tumor bearing rats. The tumors were derived from the rat mammary tumor (RMT) cell line and transplanted into the back adipose tissue of the rat and allowed to grow for 10 days. After having determined the maximum tolerated dose, all animals received two bolus doses (one hour apart) of 3-bromopyruvate injected IP. The FDG was injected 30 minutes after the first injection of 3-bromopyruvate and all animals were sacrificed 60 minutes after the FDG was injected. The tumors and all major organs were removed, weighed and analyzed in a gamma counter. […]

[6] = test system: liver implanted VX2 tumors; assay: Systemic delivery via marginal ear vein, animals with liver implanted VX2 tumors; assay type: in vivo, rabbit; conditions: 25 ml, 0.5 mM via marginal ear vein
Excerpt: Finally, it was important to examine the effect of 3-BrPA when delivered systemically (i.e., via the general circulation) on both animal toxicity and its capacity to damage liver implanted tumors.

VX2 tumor = assay: Longitudinal survival studies in the VX2 rabbit model; assay type: in vivo
Excerpt: In a longitudinal study to investigate the effect of 3-bromopyruvate treatment in the VX2 rabbit model, it was observed that although the treated rabbits lived longer than the untreated ones (statistically significant), the treated rabbits were not cured of their tumors and died within weeks of treatment of massive tumor growth. The extremely aggressive nature of the VX2 tumor was not stopped by the treatment and the tumor re-grew despite the high initial percentage of cancer cell death. Further studies were thus needed to determine the optimal dose and method of infusion of 3-bromopyruvate to attain significant long-term survival, complete eradication of the tumor.
VX2 tumors are extremely aggressive and are rendered more aggressive and difficult to treat by the passage of this tumor from generation to generation (>100) in the thigh of a rabbit making each generation more virulent than the last. […] As described herein continuous intraarterial infusion of 1.7 mM 3-bromopyruvate is an effective and potent therapy for treating liver cancer.

O=C(O)C(=O)CBr [3-bromopyruvate]
Caspase-3 activity (VX2 [1]): increased | cell viability (VX2 [2]): decreased | organs by histopathologic analysis ([3]; 50 mM IV): normal | therapeutic dose, intravenous ([3]; 2.5 mL IV, observed 3 weeks): 20 mM | therapeutic dose, intravenous ([3]; IV): 16.8 mg/kg | tolerability ([3]; all doses lower than 20 mM IV): well-tolerated and caused no deaths | clinical distress (appetite, urination, body weight) ([3]; doses lower than 20 mM IV): no evidence of clinical distress | major organs at necropsy ([3]; doses lower than 20 mM IV): without any damage | mortality ([3]; highest dose of 50 mM IV): all the animals in the group died | time to death ([3]; highest dose of 50 mM IV): ≤ 15 min | organ toxicity ([4]; 20 mM single IV dose): no evidence of any organ toxicity | therapeutic dose, intravenous ([4]; 25 ml single IV dose, 1 week): 20 mM | therapeutic dose, intravenous ([4]; single IV dose): 16.8 mg/kg | FDG uptake in other organs ([5]; two IP bolus doses): affected no other organs | decrease in FDG uptake (percentage of injected dose per gram of tissue) in back adipose tissue ([5]; two IP bolus doses one hour apart): 10 fold | animal behavior [6]: normal behavior | effect on liver implanted VX2 tumors [6]: no killing effect | histological examination of 9 major tissues ([6]; 4 days): no obvious damage | survival versus untreated rabbits (VX2 tumor; VX2 rabbit model, not cured, tumor re-grew): lived longer | delay of tumor progression versus saline (IA) controls (VX2 tumor; animals with 100% tumor kill): 75%
